Experimental data taken from patent US20260174786A1, “A NITROGEN-CONTAINING SPIROCYCLIC COMPOUND, PHARMACEUTICAL COMPOSITION AND USE THEREOF” (Prime Gene Therapeutics Co., Ltd., priority 2022, published 2026).

Biological target: T1, hTRPV3 (Homo sapiens, UniProt Q8NET8)
T1 construct: expressed in transfected cells; host or cells: HEK-293
T1 sequence (Q8NET8 1-790): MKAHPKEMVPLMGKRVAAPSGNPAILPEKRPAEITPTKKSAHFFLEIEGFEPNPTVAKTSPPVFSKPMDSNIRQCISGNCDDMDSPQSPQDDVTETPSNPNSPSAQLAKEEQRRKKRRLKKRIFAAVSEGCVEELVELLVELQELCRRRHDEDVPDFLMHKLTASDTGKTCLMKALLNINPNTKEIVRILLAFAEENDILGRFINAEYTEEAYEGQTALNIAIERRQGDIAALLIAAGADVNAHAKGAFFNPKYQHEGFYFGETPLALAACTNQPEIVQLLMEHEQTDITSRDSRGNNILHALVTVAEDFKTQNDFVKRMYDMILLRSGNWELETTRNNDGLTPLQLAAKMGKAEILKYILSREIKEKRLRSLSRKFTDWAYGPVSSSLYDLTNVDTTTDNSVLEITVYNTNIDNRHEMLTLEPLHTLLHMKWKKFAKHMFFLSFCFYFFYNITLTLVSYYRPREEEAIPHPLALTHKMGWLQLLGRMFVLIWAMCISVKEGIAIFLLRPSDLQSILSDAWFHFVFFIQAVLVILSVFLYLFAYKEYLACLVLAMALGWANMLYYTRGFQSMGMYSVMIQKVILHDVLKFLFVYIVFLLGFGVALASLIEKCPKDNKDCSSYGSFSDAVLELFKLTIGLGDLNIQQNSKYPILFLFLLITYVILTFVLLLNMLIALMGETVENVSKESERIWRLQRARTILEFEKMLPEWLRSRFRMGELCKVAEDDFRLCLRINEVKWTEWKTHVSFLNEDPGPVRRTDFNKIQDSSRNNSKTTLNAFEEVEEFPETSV
Experiment: Whole cell patch clamp inhibition rate test on HEK-293 cells instantaneously expressing TRPV3
Format: cell-based
Details: HEK293; hTRPV3, single concentration 0.3 μM
Outline: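 HEK-293 cells transiently transfected with TRPV3, recorded next-but-one day by whole-cell patch clamp at room temperature: holding −80 mV, ramp −100 to 100 mV over 100 ms every 5 s, peak current monitored. Ascending concentrations perfused, 5 min each; each cell its own control, at least two cells per concentration.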

| Compound | inhibition at 0.3 µM |
| --- | --- |
| O=C(c1ccc(F)cn1)N1CCC2(CC(O)c3cc(-c4ccccc4OC(F)(F)F)ccc32)C1 (stereo not shown) [Example 82, (5-fluoropyridin-2-yl)(3-hydroxy-5-(2-(trifluoromethoxy)phenyl)-2,3-dihydrospiro[indene-1,3′-pyrrolidine]-1′-yl) ketone] | 50 to 70% |
| O=C(c1ccc(F)cn1)N1CCC2(CC(O)c3cc(-c4cc(F)ccc4C4CC4)ccc32)C1 (stereo not shown) [Example 83, (5-(2-cyclopropyl-5-fluorophenyl)-3-hydroxy-2,3-dihydrospiro[indene-1,3′-pyrrolidine]-1′-yl)(5-fluoropyridin-2-yl) ketone] | 70 to 100% |
| O=C(c1ccc(F)cn1)N1CCC2(CC(O)c3cc(-c4ccccc4)ccc32)C1 (stereo not shown) [Example 84, (5-fluoropyridin-2-yl)(3-hydroxy-5-phenyl-2,3-dihydrospiro[indene-1,3′-pyrrolidine]-1′-yl) ketone] | 25 to 50% |
| CCOc1ccccc1-c1ccc2c(c1)C(O)CC21CCN(C(=O)c2ccc(F)cn2)C1 (stereo not shown) [Example 86, (5-(2-ethoxyphenyl)-3-hydroxy-2,3-dihydrospiro[indene-1,3′-pyrrolidine]-1′-yl)(5-fluoropyridin-2-yl) ketone] | 50 to 70% |
| O=C(c1ccc(F)cn1)N1CCC2(CC(O)c3cc(-c4cccc5c4CCC5)ccc32)C1 (stereo not shown) [Example 87, (5-(2,3-dihydro-1H-indene-4-yl)-3-hydroxy-2,3-dihydrospiro[indene-1,3′-pyrrolidine]-1′-yl)(5-fluoropyridin-2-yl) ketone] | 50 to 70% |
| CC(C)(C)c1ccccc1-c1ccc2c(c1)C(O)CC21CCN(C(=O)c2ccc(F)cn2)C1 (stereo not shown) [Example 88, (5-(2-(tert-butyl)phenyl)-3-hydroxy-2,3-dihydrospiro[indene-1,3′-pyrrolidine]-1′-yl)(5-fluoropyridin-2-yl) ketone] | 70 to 100% |
| Cc1ncccc1-c1ccc2c(c1)C(O)CC21CCN(C(=O)c2ccc(F)cn2)C1 (stereo not shown) [Example 91, (5-fluoropyridin-2-yl)(3-hydroxy-5-(2-methylpyridin-3-yl)-2,3-dihydrospiro[indene-1,3′-pyrrolidine]-1′-yl) ketone] | < 25% |
| CC(C)c1ccccc1-c1ccc2c(c1)C1(CCN(C(=O)c3ccc(F)cn3)C1)CC2O (stereo not shown) [Example 103, (5-fluoropyridin-2-yl)(3-hydroxy-6-(2-isopropylphenyl)-2,3-dihydrospiro[indene-1,3′-pyrrolidine]-1′-yl) ketone] | < 25% |
| CC(C)c1ccccc1Oc1ccc2c(c1)C(O)CC21CCN(C(=O)c2ccc(F)cn2)C1 (stereo not shown) [Example 104, (5-fluoropyridin-2-yl)(3-hydroxy-5-(2-isopropylphenyloxy)-2,3-dihydrospiro[indene-1,3′-pyrrolidine]-1′-yl) ketone] | 70 to 100% |
| CCc1nccnc1Oc1ccc2c(c1)C(O)CC21CCN(C(=O)c2ccc(F)cn2)C1 (stereo not shown) [Example 105, (5-((3-ethylpyrazin-2-yl)oxy)-3-hydroxy-2,3-dihydrospiro[indene-1,3′-pyrrolidine]-1′-yl)(5-fluoropyridin-2-yl] ketone] | < 25% |
| CC(C)c1ccccc1-c1ccc2c(c1)CCC21CCN(C(=O)c2ccc(F)cn2)C1 (stereo not shown) [Example 120, (5-fluoropyridin-2-yl)(5-(2-isopropylphenyl)-2,3-dihydrospiro[indene-1,3′-pyrrolidine]-1′-yl) ketone] | < 25% |
| CC(C)c1ccccc1-c1ccc2c(c1)C(C(=O)O)CC21CCN(C(=O)c2ccc(F)cn2)C1 (stereo not shown) [Example 129, 1′-(5-fluoropyridoyl)-5-(2-isopropylphenyl)-2,3-dihydrospiro[indene-1,3′-pyrrolidine]-3-carboxylic acid] | < 25% |
| COC(=O)C1CC2(CCN(C(=O)c3ccc(F)cn3)C2)c2ccc(-c3ccccc3C(C)C)cc21 (stereo not shown) [Example 130, methyl 1′-(5-fluoropyridoyl)-5-(2-isopropylphenyl)-2,3-dihydrospiro[indene-1,3′-pyrrolidine]-3-carboxylate] | < 25% |
| CC(C)c1ccccc1-c1ccc2c(c1)C(O)CC21CCN(S(=O)(=O)c2ccc(Cl)cn2)C1 (stereo not shown) [Example 135, 1′-((5-chloropyridin-2-yl)sulfonyl)-5-(2-isopropylphenyl)-2,3-dihydrospiro[indene-1,3′-pyrrolidine]-3-ol] | < 25% |
| CC(C)c1ccccc1-c1ccc2c(c1)C(O)CC21CC(=O)N(Cc2ccc(F)cn2)C1 (stereo not shown) [Example 137, 1′-((5-fluoropyridin-2-yl)methyl)-3-hydroxy-5-(2-isopropylphenyl)-2,3-dihydrospiro[indene-1,3′-pyrrolidine]-5′-one] | < 25% |
| CC(C)c1ccccc1-c1ccc2c(c1)C(O)CC21CCN(C(F)(F)c2ccc(F)cn2)C1 (stereo not shown) [Example 146, 1′-(difluoro(5-fluoropyridin-2-yl)methyl)-5-(2-isopropylphenyl)-2,3-dihydrospiro[indene-1,3′-pyrrolidine]-3-ol] | < 25% |
| OC1CC2(CCN(c3cnc4cc(Cl)ccn34)C2)c2ccc(-c3ccccc3C3CC3)cc21 (stereo not shown) [Example 152, 5-(2-cyclopropylphenyl)-1′-(7-chloroimidazo[1,2-a]pyridin-3-yl)-2,3-dihydrospiro[indene-1,3′-pyrrolidine]-3-ol] | 70 to 100% |
| OC1CC2(CCN(c3cnc4cc(F)ccn34)C2)c2ccc(-c3ccccc3C3CC3)cc21 (stereo not shown) [Example 153, 5-(2-cyclopropylphenyl)-1′-(7-fluoroimidazo[1,2-a]pyridin-3-yl)-2,3-dihydrospiro[indene-1,3′-pyrrolidine]-3-ol] | 70 to 100% |
| O=C1C[C@@]2(CCN(C(=O)c3ccc(F)cn3)C2)c2ccc(-c3ccccc3C3CC3)cc21 [Example 162, (S)-5-(2-cyclopropylphenyl)-1′-(5-fluoropyridoyl)spiro[indene-1,3′-pyrrolidine]-3(2H)-one] | < 25% |

More lines, now with the values ahead:

| inhibition at 0.3 µM | Compound |
| --- | --- |
| 70 to 100% | Cc1cccc(-c2ccc3c(c2)C(O)CC32CCN(C(=O)c3ccc(F)cn3)C2)c1C1CC1 (stereo not shown) [Example 85, (5-(2-cyclopropyl-3-methylphenyl)-3-hydroxy-2,3-dihydrospiro[indene-1,3′-pyrrolidine]-1′-yl)(5-fluoropyridin-2-yl) ketone] |
| 25 to 50% | CC(C)(O)c1ccccc1-c1ccc2c(c1)C(O)CC21CCN(C(=O)c2ccc(F)cn2)C1 (stereo not shown) [Example 89, (5-fluoropyridin-2-yl)(3-hydroxy-5-(2-(2-hydroxypropyl-2-)phenyl)-2,3-dihydrospiro[indene-1,3′-pyrrolidine]-1′-yl) ketone] |
| 70 to 100% | O=C(c1ccc(F)cn1)N1CCC2(CC(O)c3cc(-c4cccc5ccccc45)ccc32)C1 (stereo not shown) [Example 92, (5-fluoropyridin-2-yl)(3-hydroxy-5-(naphthalen-1-yl)-2,3-dihydrospiro[indene-1,3′-pyrrolidine]-1′-yl) ketone] |
| 70 to 100% | CC(=O)c1cc(F)ccc1-c1ccc2c(c1)C(O)CC21CCN(C(=O)c2ccc(F)cn2)C1 (stereo not shown) [Example 95, 1-(5-fluoro-2-(1′-(5-fluoropyridoyl)-3-hydroxy-2,3-dihydrospiro[indene-1,3′-pyrrolidine]-5-yl)phenyl)ethan-1-one] |
| 70 to 100% | CC(C)c1ccccc1Sc1ccc2c(c1)C(O)CC21CCN(C(=O)c2ccc(F)cn2)C1 (stereo not shown) [Example 106, (5-fluoropyridin-2-yl)(3-hydroxy-5-((2-isopropylphenyl)thio)-2,3-dihydrospiro[indene-1,3′-pyrrolidine]-1′-yl) ketone] |
| < 25% | CC(C)c1ccccc1[S+]([O-])c1ccc2c(c1)C(O)CC21CCN(C(=O)c2ccc(F)cn2)C1 (stereo not shown) [Example 107, (5-fluoropyridin-2-yl)(3-hydroxy-5-((2-isopropylphenyl)sulfoxide)-2,3-dihydrospiro[indene-1,3′-pyrrolidine]-1′-yl) ketone] |
| < 25% | CC(C)c1ccccc1S(=O)(=O)c1ccc2c(c1)C(O)CC21CCN(C(=O)c2ccc(F)cn2)C1 (stereo not shown) [Example 108, (5-fluoropyridin-2-yl)(3-hydroxy-5-((2-isopropylphenyl)sulfonyl)-2,3-dihydrospiro[indene-1,3′-pyrrolidine]-1′-yl) ketone] |
| 70 to 100% | CC(C)c1ccccc1-c1ccc2c(c1)C(CO)CC21CCN(C(=O)c2ccc(F)cn2)C1 (stereo not shown) [Example 126, (5-fluoropyridin-2-yl)(3-(methylol)-5-(2-isopropylphenyl)-2,3-dihydrospiro[indene-1,3′-pyrrolidine]-1′-yl) ketone] |
| < 25% | CC(C)c1ccccc1-c1ccc2c(c1)C(O)CC21CCN(Cc2ccc(F)cn2)C1 (stereo not shown) [Example 134, 1′-((5-fluoropyridin-2-yl)methyl)-5-(2-isopropylphenyl)-2,3-dihydrospiro[indene-1,3′-pyrrolidine]-3-ol] |
